The results in this text go back to patent US7498343B2, “Mycobacterial inhibitors” (priority 2002, dated 2009).

Structures are written as SMILES. In brackets after ≈: the same amount, converted by molar mass. Read-outs that look alike come from different tables or passages of the source.

The subject of data set [1] is Mycobacterium tuberculosis (strain H37RV). In words: In-vitro method for testing compounds against M. tuberculosis (resazurin growth inhibition, MIC). The conditions noted are these: MIC data representing IC90's, 7 days incubation, resazurin fluorescence. Format: cell-based.
The subject of the next data set is M. Smegmatis ATCC607. In words: In-vitro method for testing compounds for anti-bacterial activity against strain M. smegmatis ATCC607 (Alamar Blue growth inhibition). The class given is cell-based. The note with it: M. smegmatis ATCC607, pIC50 = -logIC50, IC50 in M, 50% inhibitory concentration for bacterial growth, 48 hours incubation; for IC50: Mycolicibacterium smegmatis, ATCC607, 48 h, read-out: pIC50 (converted). The method in brief:
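About 250 CFU/well M. smegmatis ATCC607 in Mueller-Hinton broth exposed to five-fold serial compound dilutions, 48 h at 37 °C, humidified 5% CO2. Growth read by Alamar Blue fluorescence (ex 530/em 590 nm) after 2 h further incubation; % growth inhibition calculated.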

The mark [2] stands for this setting: Mycobacterium tuberculosis, H37RV, 168 h, read-out: MIC.

`CCOc1nc2ccc(Br)cc2cc1C(c1ccccc1)C(O)(CCN(C)C)c1ccccc1` (stereo not drawn) [Compound 5] displayed a melting point of 162 °C. Moreover, in data set [1], the MIC stood at 0.33 microgram/ml. Further, the negative logarithm of the IC50 (pIC50) in the data set with M. Smegmatis ATCC607 worked out at 7.8.

On to `CN(C)CCC(O)(c1ccccc1)C(c1ccccc1)c1cnc2ccc(Br)cc2c1` (stereo not drawn) [Compound 7], for which the melting point was determined as 98 °C. This compound also yielded an MIC in data set [1] of 47.54 microgram/ml. For the same compound, the negative-log IC50 (pIC50) in the data set with M. Smegmatis ATCC607 was found to be 4.6.

On to `CN(C)CCC(O)(c1ccccc1)C(c1ccccc1)c1cnc2ccc(Br)cc2c1` (stereo not drawn) [Compound 8], for which the melting point is 180 °C. The MIC in data set [1] (setting [2]) worked out at 23.8 µg/mL (≈ 50.1 µM). Further, the pIC50 in the data set with M. Smegmatis ATCC607 was 5.7.

Take `COc1nc2ccc(Br)cc2cc1C(c1ccccc1)C(O)(CCN)c1ccccc1` (stereo not drawn) [Compound 9]: the melting point was 204 °C. In data set [1], this compound gave an MIC of 37.92 microgram/ml. For the same compound, in the data set on M. Smegmatis ATCC607, the negative logarithm of the IC50 (pIC50) is 4.5.

The compound `COc1nc2ccc(Br)cc2cc1C(c1ccccc1)C(O)(CC[N+](C)(C)C)c1ccccc1.[I-]` (stereo not drawn) [Compound 10] registered a melting point of 198 °C. For the same compound, the MIC in data set [1] (setting [2]) worked out at 10.3 µg/mL. The IC50 with M. Smegmatis ATCC607 is 2510 nM.

`COc1nc2ccc(Br)cc2cc1C(c1ccccc1)C(O)(CC[N+](C)(C)[O-])c1ccccc1` (stereo not drawn) [Compound 11] registered a melting point of 208 °C. Further, the MIC in data set [1] (setting [2]) was 41.4 µg/mL (≈ 79.4 µM). In addition, the IC50 with M. Smegmatis ATCC607 was 25100 nM.

`COc1nc2ccc(Br)cc2cc1C(c1ccc(C)cc1)C(O)(CCN(C)C)c1cccc2ccccc12` (stereo not drawn) [Compound 71] yielded a melting point of 174 °C. The compound further returned an MIC in data set [1] of 0.14 microgram/ml. In the data set with M. Smegmatis ATCC607, this compound yielded a negative logarithm of the IC50 (pIC50) of 8.5.

The compound `COc1nc2ccc(Br)cc2cc1C(c1ccc(C)cc1)C(O)(CCN(C)C)c1cccc2ccccc12` (stereo not drawn) [Compound 72] returned a melting point of 178 °C. Moreover, the MIC in data set [1] stood at 3.59 microgram/ml. This compound also came in with a pIC50 in the data set with M. Smegmatis ATCC607 of 6.9.

Consider `COc1nc2ccc(Br)cc2cc1C(c1ccccc1)C(O)(CC[N+](C)(C)[O-])c1cccc2ccccc12` (stereo not drawn) [Compound 99], for which the melting point is 218 °C. Also, the MIC in data set [1] (setting [2]) is 9.06 µg/mL (≈ 15.9 µM). For the same compound, the IC50 with M. Smegmatis ATCC607 was 12.6 nM.

On to `COc1nc2ccc(Br)cc2cc1C(c1ccccc1)C(O)(CCN(C)C)c1cccc(F)c1F` (stereo not drawn) [Compound 113], for which the melting point turned out to be 185 °C. In addition, the MIC in data set [1] came to 0.27 microgram/ml. The compound further yielded a negative logarithm of the IC50 (pIC50) in the data set with M. Smegmatis ATCC607 of 8.6.

In turn, `COc1nc2ccc(Br)cc2cc1C(c1ccccc1)C(O)(CCN(C)C)c1cccc(F)c1F` (stereo not drawn) [Compound 114] returned a melting point of 210 °C. The MIC in data set [1] turned out to be 43.01 microgram/ml. In the data set on M. Smegmatis ATCC607, this compound returned a pIC50 of 5.9.

For `COc1nc2ccc(Br)cc2cc1C(c1ccccc1)C(O)(CCN1CCCCC1)c1cccc2ccccc12` (stereo not drawn) [Compound 145], the MIC in data set [1] (setting [2]) was 59.6 µg/mL (≈ 100 µM). For the same compound, the pIC50 with M. Smegmatis ATCC607 is 5.3.

For the compound `COc1nc2ccc(Br)cc2cc1C(c1ccccc1)C(O)(CCN1CCCCC1)c1cccc2ccccc12` (stereo not drawn) [Compound 146], the MIC in data set [1] stood at 59.56 microgram/ml. For the same compound, the negative-log IC50 (pIC50) in the data set with M. Smegmatis ATCC607 worked out at 4.8.

`CCN(C)CCC(O)(c1cccc2ccccc12)C(c1ccccc1)c1cc2cc(Br)ccc2nc1OC` (stereo not drawn) [Compound 147] returned an MIC in data set [1] of 11.36 microgram/ml. In the data set on M. Smegmatis ATCC607, this compound displayed a negative-log IC50 (pIC50) of 7.4.

Consider `CCN(C)CCC(O)(c1cccc2ccccc12)C(c1ccccc1)c1cc2cc(Br)ccc2nc1OC` (stereo not drawn) [Compound 148], for which, in data set [1], the MIC is 56.96 microgram/ml. The negative-log IC50 (pIC50) in the data set with M. Smegmatis ATCC607 is given as 4.9.

As to `COc1nc2ccc(Br)cc2cc1C(c1ccccc1)C(O)(CCN1CCCCC1)c1ccc2cc(Br)ccc2c1` (stereo not drawn) [Compound 155], the MIC in data set [1] (setting [2]) stood at 67.5 µg/mL (≈ 100 µM). In addition, the negative logarithm of the IC50 (pIC50) with M. Smegmatis ATCC607 was 4.9.

In data set [1], `COc1nc2ccc(Br)cc2cc1C(c1ccccc1)C(O)(CCN1CCCCC1)c1ccc2cc(Br)ccc2c1` (stereo not drawn) [Compound 166] returned an MIC of 67.45 microgram/ml. This compound yielded a pIC50 in the data set with M. Smegmatis ATCC607 of 4.1.

Consider `COc1nc2ccc(Br)cc2cc1C(c1ccccc1)C(O)(CCN1CCCC1)c1ccc2ccccc2c1` (stereo not drawn) [Compound 170], for which the MIC in data set [1] (setting [2]) amounted to 46.2 µg/mL (≈ 79.4 µM). In the data set with M. Smegmatis ATCC607, the pIC50 was 5.6.

On to `COc1nc2ccc(Br)cc2cc1C(c1ccccc1)C(O)(CCN1CCCC1)c1ccc2ccccc2c1` (stereo not drawn) [Compound 171], for which the MIC in data set [1] amounted to 46.19 microgram/ml. Moreover, the negative logarithm of the IC50 (pIC50) with M. Smegmatis ATCC607 came to 4.3.

`COc1nc2ccc(Br)cc2cc1C(c1ccccc1)C(O)(CCn1cncn1)c1cccc2ccccc12` (stereo not drawn) [Compound 172]: the MIC in data set [1] (setting [2]) came to 7.3 µg/mL (≈ 12.6 µM). Besides, the IC50 with M. Smegmatis ATCC607 is 2000 nM.
